Measurements as given in ChEMBL document CHEMBL1132812, “Novel phosphinic and phosphonic acid analogues of the anticonvulsant valproic acid” (Bioorg Med Chem Lett, 2000).
The source made the active and inactive calls. No cut-off for these calls is given here.

What was measured:
[1] = species on record: Rattus norvegicus; assay: Compound was evaluated for the anticonvulsant activity in amygdala kindled rats; Inactive; format: functional, organism-based
[2] = target: 4-aminobutyrate aminotransferase, mitochondrial (Homo sapiens) (UniProt P80404); assay: Compound was tested for the inhibition of Gamma-amino-N-butyrate transaminase; Active
Chain of 4-aminobutyrate aminotransferase, mitochondrial (Homo sapiens) (P80404 whole entry): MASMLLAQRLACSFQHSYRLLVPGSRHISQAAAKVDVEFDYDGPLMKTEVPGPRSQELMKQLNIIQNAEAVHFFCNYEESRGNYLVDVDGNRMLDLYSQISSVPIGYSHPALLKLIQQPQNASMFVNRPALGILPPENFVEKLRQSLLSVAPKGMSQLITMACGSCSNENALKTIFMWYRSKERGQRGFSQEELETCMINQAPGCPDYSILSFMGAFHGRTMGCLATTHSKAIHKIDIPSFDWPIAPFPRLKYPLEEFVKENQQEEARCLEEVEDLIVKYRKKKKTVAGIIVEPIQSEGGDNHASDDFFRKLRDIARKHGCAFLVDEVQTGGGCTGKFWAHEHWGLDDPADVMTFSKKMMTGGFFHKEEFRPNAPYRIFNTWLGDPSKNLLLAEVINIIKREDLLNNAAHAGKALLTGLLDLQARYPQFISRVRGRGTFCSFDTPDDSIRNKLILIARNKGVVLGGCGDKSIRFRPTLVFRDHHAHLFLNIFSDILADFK

[3] = species on record: Rattus norvegicus; assay: Compound was evaluated for the anticonvulsant activity in amygdala kindled rats; Active; format: functional, organism-based
[4] = target: T1, Succinate-semialdehyde dehydrogenase, mitochondrial (Homo sapiens) (UniProt P51649); assay: Compound was tested for the inhibition of succinic semialdehyde dehydrogenase; Active
T1 sequence (whole entry): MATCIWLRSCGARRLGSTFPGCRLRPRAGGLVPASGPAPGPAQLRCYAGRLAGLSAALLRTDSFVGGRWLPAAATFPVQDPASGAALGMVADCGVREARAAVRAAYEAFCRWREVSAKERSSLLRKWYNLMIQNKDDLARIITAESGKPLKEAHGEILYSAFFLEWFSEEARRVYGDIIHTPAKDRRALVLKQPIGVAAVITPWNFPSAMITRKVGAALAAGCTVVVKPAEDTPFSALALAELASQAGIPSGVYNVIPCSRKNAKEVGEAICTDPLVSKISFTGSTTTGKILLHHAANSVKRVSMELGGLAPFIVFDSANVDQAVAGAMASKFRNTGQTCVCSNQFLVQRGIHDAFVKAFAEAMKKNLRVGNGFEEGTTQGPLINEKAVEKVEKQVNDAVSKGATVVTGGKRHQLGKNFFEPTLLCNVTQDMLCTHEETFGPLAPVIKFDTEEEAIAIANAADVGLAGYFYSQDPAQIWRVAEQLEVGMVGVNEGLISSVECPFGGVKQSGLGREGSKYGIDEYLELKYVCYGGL

SMILES | Activity [1] | Activity [2] | Activity [3] | Activity [4]
CCCC(CCC)P(C)(=O)O | inactive | – | – | –
CCCC(CCC)P(=O)(O)O | inactive | – | – | –
CCCC(CCC)[PH](=O)O | inactive | – | – | –
CCCC(CCC)C(=O)O | – | Active | Active | Active
